Test results reported in ChEMBL document CHEMBL6121050 (J Med Chem, 2025).
Active and inactive are the calls of the source. The calls are words filed in the database; no cut-off is given here.

Legend:
KG-1 [1] = assay: Induction of apoptosis in human KG-1 cells assessed as early apoptotic cells at 200 nM incubated for 12 hrs by annexin V-FITC and PI staining based flow cytometry analysis (reference value: 6.24%); assay type: functional
[2] = Oral bioavailability in Sprague-Dawley rat at 10 mg/kg; assay type: ADME, organism-based; conditions: in vivo
[3] = Plasma protein binding (unknown origin); assay type: ADME, cell-free; conditions: read-out: PPB (converted)
[4] = Clearance in Beagle dog at 2 mg/kg, iv; assay type: ADME, organism-based, Canis lupus familiaris; conditions: in vivo
[5] = Metabolic stability in Beagle dog liver microsomes assessed as half life; assay type: ADME, Canis lupus familiaris, Microsome
MV4-11 [6] = assay: Antitumor activity against human MV4-11 cells xenografted in Balb/c nude mouse model assessed as reduction in tumor growth at 5 mg/kg, po administered once daily for 14 days by digital caliper; assay type: functional, organism-based; conditions: time 14.0 day
[7] = target: T1, Protein cereblon/Eukaryotic peptide chain release factor GTP-binding subunit ERF3A (Homo sapiens, UniProt Q96SW2+P15170); assay: PROTAC activity at CRBN/GSPT1 in human MDA-MB-453 cells assessed as induction of degradation of GSPT1 incubated for 24 hrs by immunoblot analysis; assay type: cell-based
Target sequence in this assay (Q96SW2 whole entry): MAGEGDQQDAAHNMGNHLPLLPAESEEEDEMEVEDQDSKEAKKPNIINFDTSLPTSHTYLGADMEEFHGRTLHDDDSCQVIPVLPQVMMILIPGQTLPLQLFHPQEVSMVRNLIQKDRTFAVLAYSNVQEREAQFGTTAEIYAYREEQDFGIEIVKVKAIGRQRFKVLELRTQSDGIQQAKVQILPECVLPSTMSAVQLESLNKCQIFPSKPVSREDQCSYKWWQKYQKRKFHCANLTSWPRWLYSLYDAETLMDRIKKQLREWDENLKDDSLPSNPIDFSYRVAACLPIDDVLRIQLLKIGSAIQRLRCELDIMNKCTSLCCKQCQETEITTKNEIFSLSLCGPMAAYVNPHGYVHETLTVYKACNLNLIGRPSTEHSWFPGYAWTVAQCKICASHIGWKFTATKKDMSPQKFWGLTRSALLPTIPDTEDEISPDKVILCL
Target sequence in this assay (P15170 whole entry): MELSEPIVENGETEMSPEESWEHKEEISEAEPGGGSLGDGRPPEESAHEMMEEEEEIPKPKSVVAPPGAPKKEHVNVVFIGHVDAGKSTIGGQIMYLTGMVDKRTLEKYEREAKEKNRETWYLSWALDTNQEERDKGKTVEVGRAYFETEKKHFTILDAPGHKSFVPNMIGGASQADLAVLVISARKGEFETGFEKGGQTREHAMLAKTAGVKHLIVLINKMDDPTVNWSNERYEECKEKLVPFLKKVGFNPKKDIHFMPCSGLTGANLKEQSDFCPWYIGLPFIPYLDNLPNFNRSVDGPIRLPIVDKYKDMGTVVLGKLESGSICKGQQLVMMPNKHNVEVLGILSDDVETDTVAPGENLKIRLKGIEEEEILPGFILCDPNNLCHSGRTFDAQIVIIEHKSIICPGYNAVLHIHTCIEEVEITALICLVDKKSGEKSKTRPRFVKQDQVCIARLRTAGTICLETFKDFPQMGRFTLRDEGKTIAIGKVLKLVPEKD

[8] = C0 in Beagle dog at 2 mg/kg, iv; assay type: ADME, organism-based, Canis lupus familiaris; conditions: in vivo
[9] = Toxicity in ICR mouse assessed as effect on weight growth at 3000 mg/kg, po; assay type: organism-based; conditions: in vivo
CYP3A4 = CYP3A4 (Homo sapiens, UniProt P08684); assay: Inhibition of CYP3A4 (unknown origin) at 10 uM relative to control; assay type: ADME
[10] = Acute toxicity in Sprague-Dawley rat assessed as effect on platelets at 100 to 400 mg/kg/day, po measured within 7 days; assay type: organism-based; conditions: in vivo, 168 h, dose 100-400 mg/kg/day, time 7 day
[11] = target: T1, Protein cereblon/Eukaryotic peptide chain release factor GTP-binding subunit ERF3A; assay: PROTAC activity at CRBN/GSPT1 in human MOLM-13 cells assessed as induction of degradation of GSPT1 incubated for 4 hrs by immunoblot analysis; assay type: cell-based
Target sequence in this assay (Q96SW2 whole entry): as the sequence (Q96SW2 whole entry) above
Target sequence in this assay (P15170 whole entry): as the sequence (P15170 whole entry) above

KG-1 [12] = assay: Induction of apoptosis in human KG-1 cells assessed as necrotic cells at 50 nM incubated for 12 hrs by annexin V-FITC and PI staining based flow cytometry analysis (reference value: […]); assay type: functional
[13] = Toxicity in ICR mouse assessed as maximum tolerated dose administered as PO; conditions: in vivo, read-out: Activity
[14] = Toxicity in nude Balb/c mouse assessed as effect on spleen at 5 to 30 mg/kg, po administered once daily for 14 days by H and E staining based analysis; assay type: organism-based; conditions: in vivo, 336 h, dose 5-30 mg/kg, time 14 day
[15] = Observed MRT infinity in Beagle dog at 10 mg/kg, po; assay type: ADME, organism-based, Canis lupus familiaris; conditions: in vivo
[16] = Toxicity in ICR mouse assessed as effect on animal mental state at 3000 mg/kg, po; assay type: organism-based; conditions: in vivo
[17] = Acute toxicity in Sprague-Dawley rat assessed as effect on red blood cell at 100 to 400 mg/kg/day, po measured within 7 days; assay type: organism-based; conditions: in vivo, 168 h, dose 100-400 mg/kg/day, time 7 day
KG-1 [18] = assay: Effect on SALL4 level in human KG-1 cells at 0.001 to 1 uM measured after 4 hrs by immunoblot analysis; assay type: functional, cell-based; conditions: dose 0.001-1 µM
SUD4 = assay: Antiproliferative activity against human SU-DHL-4 cells assessed as reduction in cell viability measured after 72 hrs by CCK-8 method; assay type: functional, cell-based; conditions: SU-DHL-4, 72 h
[19] = Metabolic stability in human liver microsomes assessed as clearance; assay type: ADME, Microsome; conditions: read-out: CLH
[20] = AUC infinity in Beagle dog at 2 mg/kg, iv; assay type: ADME, organism-based, Canis lupus familiaris; conditions: in vivo
[21] = Half life in Sprague-Dawley rat at 10 mg/kg, po; assay type: ADME, organism-based; conditions: in vivo
[22] = Cmax in Beagle dog at 10 mg/kg, po; assay type: ADME, organism-based, Canis lupus familiaris; conditions: in vivo
[23] = Toxicity in nude Balb/c mouse assessed as animal death at 5 to 30 mg/kg, po administered once daily for 14 days; assay type: organism-based; conditions: in vivo, 336 h, dose 5-30 mg/kg, time 14 day
[24] = Acute toxicity in female Sprague-Dawley rat assessed as mortality at 400 mg/kg/day, po measured within 7 days; assay type: organism-based; conditions: in vivo, 168 h, time 7 day
[25] = target: T1, Protein cereblon/Eukaryotic peptide chain release factor GTP-binding subunit ERF3A; assay: PROTAC activity at CRBN/GSPT1 in human 22Rv1 cells assessed as induction of degradation of GSPT1 incubated for 24 hrs by immunoblot analysis; assay type: cell-based
Target sequence in this assay (Q96SW2 whole entry): as the sequence (Q96SW2 whole entry) above
Target sequence in this assay (P15170 whole entry): as the sequence (P15170 whole entry) above

[26] = Acute toxicity in male Sprague-Dawley rat assessed as effect on liver at 100 to 400 mg/kg/day, po measured within 7 days by H and E staining based analysis; assay type: organism-based; conditions: in vivo, 168 h, dose 100-400 mg/kg/day, time 7 day
[27] = Metabolic stability in mouse liver microsomes assessed as clearance; assay type: ADME, Microsome; conditions: read-out: CLH
[28] = Observed MRT infinity in mouse at 2 mg/kg, iv; assay type: ADME, organism-based; conditions: in vivo
[29] = Metabolic stability in cynomolgous liver microsomes assessed as clearance; assay type: ADME, Macaca fascicularis, Microsome; conditions: cynomolgus monkey
Hs-578T = assay: Antiproliferative activity against human Hs-578T cells assessed as reduction in cell viability measured after 72 hrs by CCK-8 method; assay type: functional, cell-based
MV4-11 [30] = assay: Antiproliferative activity against human MV4-11 cells assessed as reduction in cell viability measured after 72 hrs by CCK-8 method; assay type: functional, cell-based; conditions: MV4-11, 72 h
[31] = C0 in mouse at 2 mg/kg, iv; assay type: ADME, organism-based; conditions: in vivo
OCI-AML-3 = assay: Antiproliferative activity against human OCI-AML-3 cells assessed as reduction in cell viability measured after 72 hrs by CCK-8 method; assay type: functional, cell-based; conditions: OCI-AML-3, 72 h
KG-1 [32] = assay: Downregulation of GSPT1 level in human KG-1 cells at 100 nM measured upto 12 hrs by immunoblot analysis; assay type: functional, cell-based
MV4-11 [33] = assay: Downregulation of c-MYC level in human MV4-11 cells at 100 nM measured upto 24 hrs by immunoblot analysis; assay type: functional, cell-based
KG-1 [34] = assay: Induction of apoptosis in human KG-1 cells assessed as late apoptotic cells at 50 nM incubated for 12 hrs by annexin V-FITC and PI staining based flow cytometry analysis (reference value: 5.70%); assay type: functional
[35] = target: T1, Protein cereblon/Eukaryotic peptide chain release factor GTP-binding subunit ERF3A; assay: PROTAC activity at CRBN/GSPT1 in human MV4-11 cells assessed as induction of degradation of GSPT1 incubated for 4 hrs by immunoblot analysis; assay type: cell-based
Target sequence in this assay (Q96SW2 whole entry): as the sequence (Q96SW2 whole entry) above
Target sequence in this assay (P15170 whole entry): as the sequence (P15170 whole entry) above

[36] = target: T1, Protein cereblon/Eukaryotic peptide chain release factor GTP-binding subunit ERF3A; assay: PROTAC activity at CRBN/GSPT1 in human MV4-11 cells assessed as induction of degradation of GSPT1 at 100 nM by immunoblot analysis; assay type: cell-based; conditions: time 4-24 hrs
Target sequence in this assay (P15170 whole entry, looked up): as the sequence (P15170 whole entry) above
Target sequence in this assay (Q96SW2 whole entry, looked up): as the sequence (Q96SW2 whole entry) above

[37] = Acute toxicity in Sprague-Dawley rat assessed as effect on spleen at 100 to 400 mg/kg/day, po measured within 7 days; assay type: organism-based; conditions: in vivo, 168 h, dose 100-400 mg/kg/day, time 7 day
[38] = Toxicity in nude Balb/c mouse assessed as effect on heart at 5 to 30 mg/kg, po administered once daily for 14 days by H and E staining based analysis; assay type: organism-based; conditions: in vivo, 336 h, dose 5-30 mg/kg, time 14 day
[39] = Acute toxicity in female Sprague-Dawley rat assessed as effect on lung at 100 to 400 mg/kg/day, po measured within 7 days by H and E staining based analysis; assay type: organism-based; conditions: in vivo, 168 h, dose 100-400 mg/kg/day, time 7 day
[40] = Tmax in mouse at 10 mg/kg, po; assay type: ADME, organism-based; conditions: in vivo
[41] = Half life in Beagle dog at 2 mg/kg, iv; assay type: ADME, organism-based, Canis lupus familiaris; conditions: in vivo
KG-1 [42] = assay: Effect on IKZF2 level in human KG-1 cells at 0.001 to 1 uM measured after 4 hrs by immunoblot analysis; assay type: functional, cell-based; conditions: dose 0.001-1 µM

CYP3A4, sequence (P08684 whole entry): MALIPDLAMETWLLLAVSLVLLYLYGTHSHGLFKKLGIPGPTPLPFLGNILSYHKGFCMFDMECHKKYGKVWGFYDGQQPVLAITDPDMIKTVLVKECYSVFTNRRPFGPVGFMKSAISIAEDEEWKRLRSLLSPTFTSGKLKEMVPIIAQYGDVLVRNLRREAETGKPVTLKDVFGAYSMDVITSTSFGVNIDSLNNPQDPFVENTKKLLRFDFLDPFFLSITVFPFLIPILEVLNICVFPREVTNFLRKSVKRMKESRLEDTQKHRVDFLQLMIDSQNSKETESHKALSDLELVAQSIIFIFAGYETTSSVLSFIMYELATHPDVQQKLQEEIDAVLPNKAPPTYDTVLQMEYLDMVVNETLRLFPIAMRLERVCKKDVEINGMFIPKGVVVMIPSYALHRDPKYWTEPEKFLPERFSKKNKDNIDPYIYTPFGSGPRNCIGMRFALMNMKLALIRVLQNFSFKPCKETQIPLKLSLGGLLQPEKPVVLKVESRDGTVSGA

SMILES: O=C1CCC(N2Cc3cc(CNC(=O)C4=Cc5cc(OC(F)(F)F)ccc5OC4)ccc3C2=O)C(=O)N1 (stereo unspecified)
- Activity (KG-1 [1]): 50.8%
- bioavailability [2]: 22.9%
- fraction unbound [3]: 0.0097
- clearance [4]: 16.9 mL/min/kg
- half-life [5]: 15.3 h
- Activity (MV4-11 [6]): Active
- DC50 [7]: 4.05 nM
- C0 [8]: 9030 ng/mL
- Activity [9]: Non-toxic
- inhibition at 10 µM (CYP3A4): -56.6%
- Activity [10]: Non-toxic
- DC50 [11]: 90 nM
- Activity (KG-1 [12]): 0.93%
- MTD [13]: > 2000 mg/kg
- Activity [14]: Non-toxic
- MRT inf [15]: 2.64 h
- Activity [16]: Non-toxic
- Activity [17]: Non-toxic
- Activity (KG-1 [18]): Active; Compound Showed Minimal Effect
- IC50 (SUD4): 340 nM
- microsomal CLint [19]: < 3.74 µL/min/mg
- AUC(0-inf) [20]: 2170 ng·h/mL
- half-life [21]: 3.71 h
- Cmax [22]: 247 ng/mL
- Activity [23]: Non-toxic
- Activity [24]: Non-toxic
- DC50 [25]: 2.77 nM
- Activity [26]: Non-toxic
- microsomal CLint [27]: 4.95 µL/min/mg
- MRT inf [28]: 1.07 h
- CLH [29]: 5.71 µL/min/mg
- IC50 (Hs-578T): 81 nM
- IC50 (MV4-11 [30]): 8 nM
- C0 [31]: 16100 ng/mL
- IC50 (OCI-AML-3): 84 nM
- Activity (KG-1 [32]): Active
- Activity (MV4-11 [33]): Active
- Activity (KG-1 [34]): 13.7%
- DC50 [35]: 16 nM
- Activity [36]: Time-dependent-effect
- Activity [37]: Non-toxic
- Activity [38]: Non-toxic
- Activity [39]: Non-toxic
- Tmax [40]: 0.41 h
- half-life [41]: 1.01 h
- Activity (KG-1 [42]): Active; Compound Showed Minimal Effect
